Here are results for seven molecules from PMC5041076, “Ilex kaushue and Its Bioactive Component 3,5-Dicaffeoylquinic Acid Protected Mice from Lipopolysaccharide-Induced Acute Lung Injury” (Scientific Reports, 2016).

The target of one test is T1, Bovine chymotrypsin (Bos taurus, UniProt P00766).
T1 construct: purchased Sigma-Aldrich C4129
Briefly: Serine protease enzyme inhibition assay, chymotrypsin. The format is biochemical. The conditions noted are these: mean ± S.E.M. (n ≥ 3).

The target in a further test is Human thrombin (Homo sapiens, UniProt P00734). The experiment in a line: Serine protease enzyme inhibition assay, thrombin.
The target in the next test is T2, Human proteinase 3 (Homo sapiens, UniProt P24158).
T2 construct: purchased Merk 539483
T2 sequence (P24158 28-256): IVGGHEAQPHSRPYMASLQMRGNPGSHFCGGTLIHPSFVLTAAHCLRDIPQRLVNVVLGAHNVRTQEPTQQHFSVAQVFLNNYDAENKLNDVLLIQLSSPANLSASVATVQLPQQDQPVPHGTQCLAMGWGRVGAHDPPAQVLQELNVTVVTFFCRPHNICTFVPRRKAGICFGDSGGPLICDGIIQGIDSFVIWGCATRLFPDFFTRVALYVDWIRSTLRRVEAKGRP
Briefly: Serine protease enzyme inhibition assay, proteinase 3. Type of test: biochemical. The settings on record: mean ± S.E.M. (n ≥ 3).

For test [1], the system named is fMLF/CB-activated neutrophils. The experiment in a line: Elastase release in fMLF/CB-activated neutrophils. The format is cell-based. The settings on record: for IC50: read-out: IC50 HNE (NE activity / elastase release). As to the method: (§1) All assays were performed as described previously[58],[59]. Neutrophils isolated from the blood of healthy volunteers (20–30 years old) were resuspended in a Ca^2+-free HBSS buffer (pH 7.4) at 4 °C before use. O2^.− generation was measured based on reduction of ferricytochrome c. In brief, after supplementation with 0.5 mg/ml ferricytochrome c and 1 mM Ca^2+, neutrophils were equilibrated at 37 °C for 2 min and incubated with the specified drugs for 5 min. Neutrophils were activated using 30 nM fMLF or 100 nM LTB4 for 10 min after addition of cytochalasin B (CB, 1 μg/mL) for 3 min. Changes in absorbance concomitant with reduction of ferricytochrome c at 550 nm were continuously monitored. For elastase release, neutrophils (6 × 10^5 cells/mL) were mixed with methoxysuccinyl-Ala-Ala-Pro-Val-pNA (100 μM) substrate at 37 °C for 5 min. […] Inhibition of superoxide generation and elastase release were calculated in keeping with previous reports.

Test [2] has as its target T3, Human neutrophil elastase (Homo sapiens, UniProt P08246).
T3 construct: purchased Enzo BML-SE284
T3 sequence (P08246 30-267): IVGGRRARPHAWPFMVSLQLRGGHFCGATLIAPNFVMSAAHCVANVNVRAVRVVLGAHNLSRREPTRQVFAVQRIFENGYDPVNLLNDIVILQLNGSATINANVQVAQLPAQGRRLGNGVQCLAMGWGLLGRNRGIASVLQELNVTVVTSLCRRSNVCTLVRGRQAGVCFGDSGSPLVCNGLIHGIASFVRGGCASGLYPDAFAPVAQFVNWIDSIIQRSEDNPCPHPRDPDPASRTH
The experiment in a line: Serine protease enzyme inhibition assay, HNE. Type of test: biochemical. The settings on record: for IC50: enzyme assay, mean ± S.E.M. (n ≥ 3), read-out: IC50 HNE; for selectivity of inhibitory effect among serine proteases: five serine proteases examined; for Inh % (HNE inhibition): at 30 M (so in the source), Table S3.

The subject of test [3] is fMLF/CB-activated neutrophils. The experiment in a line: O2.- generation in fMLF/CB-activated neutrophils (ferricytochrome c reduction). The format is cell-based, human. The settings on record: for IC50 / IC50 O2^.− generation: fMLF/CB-activated human neutrophils. Here is the method:
as §1

The target in another test is T4, Human cathepsin G (Homo sapiens, UniProt P08311).
T4 construct: purchased Enzo BML-SE283
T4 sequence (P08311 21-255): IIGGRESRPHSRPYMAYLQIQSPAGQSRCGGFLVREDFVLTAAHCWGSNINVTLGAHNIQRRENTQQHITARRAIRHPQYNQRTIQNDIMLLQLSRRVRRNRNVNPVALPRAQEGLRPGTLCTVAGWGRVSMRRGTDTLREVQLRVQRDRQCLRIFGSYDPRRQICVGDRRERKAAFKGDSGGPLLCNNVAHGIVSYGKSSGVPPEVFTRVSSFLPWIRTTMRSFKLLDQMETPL
Briefly: Serine protease enzyme inhibition assay, cathepsin G. The format is biochemical. The settings on record: mean ± S.E.M. (n ≥ 3).

Where [4] appears, read: fMLF/CB-activated human neutrophils.
Setting [5] is: read-out: IC50 Thrombin, enzyme assay, mean ± S.E.M. (n ≥ 3).

Read-outs that look alike come from different tables or passages of the source. Some results are limits rather than exact numbers.

Consider `C[C@H]1[C@H](C)CC[C@]2(C(=O)O)CC[C@]3(C)C(=CC[C@@H]4[C@@]5(C)CC[C@H](O)C(C)(C)[C@@H]5CC[C@]43C)[C@H]12` [Compound 9, ursolic acid], for which the IC50 on Bovine chymotrypsin worked out at 6.06 ± 0.05 µM; on Human thrombin, 6.37 ± 0.6 µM; at Human proteinase 3, 7.33 ± 0.65 µM; in test [1] (Homo sapiens, Neutrophil) it was 1.07 ± 0.33 µM; in test [2], 11.5 ± 1.28 µM; in test [3] (Neutrophil), 0.99 ± 0.26 µM. Besides, the IC50 at Human cathepsin G was above 30 µM. Besides, the “IC50 HNE (NE activity / elastase release)” value in test [1] (setting [4]) was “good inhibitory effects”. Also, the “selectivity of inhibitory effect among serine proteases” value in test [2] is “non-selective inhibitory effects”. The “IC50 O2^.− generation” value in test [3] is reported as “good inhibitory effects”.

With `O=C(/C=C/c1ccc(O)c(O)c1)O[C@H]1[C@H](O)C[C@](O)(C(=O)O)C[C@H]1OC(=O)/C=C/c1ccc(O)c(O)c1` [Compound 7, 4,5-DCQA], the IC50 against Bovine chymotrypsin was above 30 µM; at Human thrombin (setting [5]), above 30 µM; on Human proteinase 3, above 30 µM; in test [1] (setting [4]), above 10 µM; in test [2], above 30 µM; in test [3], 1.49 ± 0.38 µM. At Human cathepsin G, this molecule yielded an IC50 above 30 µM. Also, the “Inh % (HNE inhibition)” value in test [2] worked out at 36.42 ± 2.25%.

With `O=C(C=Cc1ccc(O)c(O)c1)OC1CC(O)(C(=O)O)CC(O)C1O` (centres unmarked) [Compound 1], the IC50 on Bovine chymotrypsin was above 30 µM; on Human thrombin (setting [5]), above 30 µM; at Human proteinase 3, above 30 µM; in test [1] (setting [4]), above 10 µM; in test [2], above 30 µM; in test [3], 1.54 ± 0.29 µM. Further, the IC50 against Human cathepsin G was above 30 µM. Further, in test [2], the “Inh % (HNE inhibition)” value was -2.99 ± 1.35%.

With `C[C@@H]1O[C@@H](O[C@H]2[C@H](OC(=O)[C@]34CCC(C)(C)[C@@H](O)[C@H]3C3=CC[C@@H]5[C@@]6(C)CC[C@H](O[C@@H]7OC[C@H](O)[C@H](O[C@@H]8O[C@H](CO)[C@@H](O)[C@H](O)[C@H]8O)[C@H]7O[C@@H]7O[C@@H](C)[C@H](O)[C@@H](O)[C@H]7O)C(C)(C)[C@@H]6CC[C@@]5(C)[C@]3(C)CC4)O[C@H](CO)[C@@H](O)[C@@H]2O)[C@H](O)[C@H](O)[C@H]1O` [Compound 14], the IC50 at Bovine chymotrypsin was above 30 µM; on Human thrombin (setting [5]), above 30 µM; against Human proteinase 3, above 30 µM; in test [1] (setting [4]), above 10 µM; in test [2], above 30 µM; in test [3], above 10 µM. Moreover, the IC50 at Human cathepsin G is above 30 µM.

Turning to `O=C(/C=C/c1ccc(O)c(O)c1)O[C@H]1[C@H](O)C[C@](O)(C(=O)O)C[C@H]1OC(=O)/C=C/c1ccc(O)c(O)c1` [Compound 4, 3,4-DCQA], the IC50 against Bovine chymotrypsin was above 30 µM; on Human thrombin (setting [5]) it was above 30 µM; on Human proteinase 3 it was above 30 µM; in test [1] (setting [4]), above 10 µM; in test [2], above 30 µM; in test [3], 1.7 ± 0.28 µM. The IC50 at Human cathepsin G is above 30 µM. Besides, the “Inh % (HNE inhibition)” value in test [2] is 9.91 ± 0.99%.

In the case of `N#CC=C1C=CC(O)CC1OC1OC(CO)C(O)C(O)C1O` (centres unmarked) [Compound 19, menisdaurin F], the IC50 against Bovine chymotrypsin was above 30 µM; at Human thrombin it was above 30 µM; at Human proteinase 3, above 30 µM; in test [1] (Homo sapiens, Neutrophil), above 10 µM; in test [2] it was above 30 µM; in test [3] (Neutrophil) it was above 10 µM. In addition, the IC50 against Human cathepsin G is above 30 µM.

Take `CC1=C(C)C2C3=CCC4[C@@]5(C)CC[C@H](O)C(C)(C)C5CC[C@@]4(C)[C@]3(C)CC[C@@]2(C(=O)O)CC1` (some centres unmarked) [Compound 15-2, sanguisorbigenin]: the IC50 at Bovine chymotrypsin was 11.4 ± 0.2 µM; against Human thrombin, 11.8 ± 2.2 µM; on Human proteinase 3, 14.8 ± 0.59 µM; in test [1] (Homo sapiens, Neutrophil), 0.2 ± 0.02 µM; in test [2], 24.7 ± 0.48 µM; in test [3] (Neutrophil) it was 0.26 ± 0.1 µM. For the same molecule, the IC50 at Human cathepsin G was above 30 µM. Moreover, the “IC50 HNE (NE activity / elastase release)” value in test [1] (setting [4]) is “good inhibitory effects”. Moreover, the “selectivity of inhibitory effect among serine proteases” value in test [2] is “non-selective inhibitory effects”. Further, in test [3] (fMLF-induced neutrophils), the “efficacy relative to ursolic acid” value is listed as 5 fold. In test [3], the “IC50 O2^.− generation” value was “good inhibitory effects”.
